Data: patent publication US7560466B2, “Methods of treating or preventing autoimmune diseases with 2,4-pyrimidinediamine compounds” (Rigel Pharmaceuticals, Inc., priority 2003, dated 2009)
Counter-ions that a name gives are not always drawn. Like-named read-outs stand apart in the source and are kept apart here.

Tests used:
[1] = tested on: cultured human mast cells (CHMC), IgE-induced degranulation; assay: CHMC low cell density IgE activation: tryptase assay; assay type: cell-based
Outline: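 Cord-blood CD34+-derived mucosal mast cells (SCF/IL-6 medium), 1000–1500 cells/well, preincubated with compound 1 h at 37°C, then anti-IgE stimulated 30 min at 37°C.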

[2] = tested on: cultured human mast cells (CHMC), ionomycin-induced degranulation; assay: CHMC low cell density ionomycin activation: tryptase assay; assay type: cell-based; conditions: ionomycin activation, read-out: LD Tryptase, CHMC, Iono, 3pt
[3] = low cell density CHMC, 3pt, read-out: LD Tryptase, CHMC, IgE, 3pt
[4] = low cell density CHMC, 8pt, read-out: LD Tryptase, CHMC, IgE, 8pt
[5] = CHMC low cell density, 8pt, read-out: LD Tryptase, CHMC, IgE, 8pt

Row | Molecule | IC50 [1, 3] | IC50 [1, 4] | IC50 ([2]; low cell density CHMC, 3pt) | further results
1 | COc1cc(C)c(Nc2ncc(F)c(Nc3ccc4c(c3)NC(C)(C)CO4)n2)cc1Cl [Compound 216, N2-(3-Chloro-4-methoxy-6-methylphenyl)-N4-(3,4-dihydro-3,3-dimethyl-2H,4H-benz[1,4]oxazin-6-yl)-5-fluoro-2,4-pyrimidinediamine] | < 10 µM | < 10 µM | > 10 µM | –
2 | Fc1cnc(Nc2cccc(-c3ncco3)c2)nc1Nc1ccc2c(c1)NCCO2 [Compound 217, N4-(3,4-Dihydro-2H,4H-benz[1,4]oxazin-6-yl)-5-fluoro-N2-[3-(oxazol-2-yl)phenyl]-2,4-pyrimidinediamine] | < 10 µM | < 10 µM | > 10 µM | –
3 | CC1(C)COc2ccc(Nc3nc(Nc4cccc(-c5ncco5)c4)ncc3F)cc2N1 [Compound 218, N4-(3,4-Dihydro-3,3-dimethyl-2H,4H-benz[1,4]oxazin-6-yl)-5-fluoro-N2-[3-(oxazol-2-yl)phenyl]-2,4-pyrimidinediamine] | < 10 µM | < 10 µM | > 10 µM | –
4 | Fc1cnc(Nc2ccc(-c3cnco3)cc2)nc1Nc1ccc2c(c1)NCCO2 [Compound 222, N4-(3,4-Dihydro-2H,4H-Benz[1,4]oxazin-6-yl)-5-fluoro-N2-[4-(oxazol-5-yl)phenyl]-2,4-pyrimidinediamine] | < 10 µM | < 10 µM | > 10 µM | –
5 | CC1(C)COc2ccc(Nc3nc(Nc4ccc(-c5cnco5)cc4)ncc3F)cc2N1 [Compound 223, N4-(3,4-Dihydro-3,3-dimethyl-2H,4H-benz[1,4]oxazin-6-yl)-5-fluoro-N2-[4-(oxazol-5-yl)phenyl]-2,4-pyrimidinediamine] | < 10 µM | < 10 µM | > 10 µM | –
6 | C[C@@H]1Oc2ccc(Nc3nc(Nc4ccc(-c5cnco5)cc4)ncc3F)cc2NC1=O [Compound 225] | < 10 µM | < 10 µM | > 10 µM | –
7 | Fc1cnc(Nc2cccc(-c3cnco3)c2)nc1Nc1ccc2c(c1)NCCO2 [Compound 232, N4-(3,4-Dihydro-2H,4H-benz[1,4]oxazin-6-yl)-5-fluoro-N2-[3-(oxazol-5-yl)phenyl]-2,4-pyrimidinediamine] | < 10 µM | < 10 µM | > 10 µM | –
8 | CC1(C)COc2ccc(Nc3nc(Nc4cccc(-c5cnco5)c4)ncc3F)cc2N1 [Compound 233, N4-(3,4-Dihydro-3,3-dimethyl-2H,4H-benz[1,4]oxazin-6-yl)-5-fluoro-N2-[3-(oxazol-5-yl)phenyl]-2,4-pyrimidinediamine] | < 10 µM | < 10 µM | > 10 µM | –
9 | CC1(C)COc2ccc(Nc3nc(Nc4ccc(-c5ncco5)cc4)ncc3F)cc2N1 [Compound 238, N4-(3,4-Dihydro-3,3-dimethyl-2H,4H-benz[1,4]oxazin-6-yl)-5-fluoro-N2-[4-(oxazol-2-yl)phenyl]-2,4-pyrimidinediamine] | < 10 µM | < 10 µM | > 10 µM | –
10 | CN1CCOc2ccc(Nc3nc(Nc4ccc(-c5ncco5)cc4)ncc3F)cc21 [Compound 243, N4-(2,3-Dihydro-4-methyl-2H-benz[1,4]oxazin-6-yl)-5-fluoro-N2-[4-(oxazol-2-yl)phenyl]-2,4-pyrimidinediamine] | < 10 µM | < 10 µM | > 10 µM | –
11 | COc1cc(Nc2ncc(F)c(Nc3ccc4c(c3)NCC(CCO)O4)n2)cc(OC)c1 (stereo not drawn) [Compound 253, N4-[3,4-Dihydro-2-(2-hydroxyethyl)-2H,4H-benz[1,4]oxazin-6-yl]-N2-(3,5-dimethoxyphenyl)-5-fluoro-2,4-pyrimidinediamine] | < 10 µM | < 10 µM | > 10 µM | –
12 | CNC(=O)COc1cccc(Nc2ncc(F)c(Nc3ccc4c(c3)NC(=O)CS4)n2)c1 [Compound 254, 5-Fluoro-N2-[3-(N-methylamino)carbonylmethyleneoxyphenyl]-N4-(3-oxo-2H,4H-benzo[1,4]thiazin-6-yl)-2,4-pyrimidinediamine] | < 10 µM | < 10 µM | > 10 µM | –
13 | Cc1cc(C)cc(Nc2ncc(F)c(Nc3ccc4c(c3)NCC(CCO)O4)n2)c1 (stereo not drawn) [Compound 255, N4-[2,3-Dihydro-2-(2-hydroxyethyl)-2H,4H-benz[1,4]oxazin-6-yl]-N2-(3,5-dimethylphenyl)-5-fluoro-2,4-pyrimidinediamine] | < 10 µM | < 10 µM | > 10 µM | –
14 | CNC(=O)COc1cccc(Nc2ncc(F)c(Nc3ccc4c(c3)NCCS4)n2)c1 [Compound 258, N4-(3,4-Dihydro-2H,4H-benzo[1,4]thiazin-6-yl)-5-fluoro-N2-[3-(N-methylamino)carbonylmethyleneoxyphenyl]-2,4-pyrimidinediamine] | < 10 µM | < 10 µM | > 10 µM | –
15 | CNC(=O)COc1cccc(Nc2ncc(F)c(Nc3ccc4c(c3)N(C)C(=O)CS4)n2)c1 [Compound 259, 5-Fluoro-N2-[3-(N-methylamino)carbonylmethyleneoxyphenyl]-N4-(4-methyl-3-oxo-2H-benzo[1,4]thiazin-6-yl)-2,4-pyrimidinediamine] | < 10 µM | < 10 µM | > 10 µM | –
16 | NC(=S)c1cccc(Nc2ncc(F)c(Nc3ccc4c(c3)NC(=O)CO4)n2)c1 [Compound 261, N2-(3-Benzothioamide)-5-fluoro-N4-(3-oxo-2H,4H-benz[1,4]oxazin-6-yl)-2,4-pyrimidinediamine] | < 10 µM | – | > 10 µM | –
17 | CNC(=O)COc1cccc(Nc2ncc(F)c(Nc3ccc4c(n3)NC(=O)C(C)(C)O4)n2)c1 [Compound 992, N4-(2,2-Dimethyl-3-oxo-4H-5-pyrid[1,4]oxazin-6-yl)-5-fluoro-N2-[3-(N-methylamino)carbonylmethyleneoxyphenyl]-2,4-pyrimidinediamine (+)-Camphorsulfonic Acid Salt] | – | – | – | IC50 ([2]; CHMC low cell density, 3pt): > 10 µM
18 | Cn1ncc2ccc(Nc3ncc(F)c(Nc4ccc5c(n4)NC(=O)C(C)(C)O5)n3)cc21 [Compound 1056, N4-(2,2-Dimethyl-3-oxo-4H-5-pyrid[1,4]oxazin-6-yl)-5-fluoro-N2-[1-methylindazol-6-yl]-2,4-pyrimidinediamine Hydrogen Chloride Salt] | – | – | – | IC50 ([2]; low cell density CHMC, 3-point): > 10 µM
19 | N4-(2,2-Dimethyl-3-oxo-4H-5-pyrid[1,4]oxazin-6-yl)-N2-(1-methyl-2-trifluoromethylbenzimidazol-5-yl)-2,4-pyrimidinediamine [Compound 915] | – | – | – | IC50 [1, 5]: < 10 µM
20 | N4-(2,2-Dimethyl-3-oxo-4H-N4-oxo-5-pyrido[1,4]oxazin-6-yl)-5-fluoro-N2-(3,4,5-trimethoxyphenyl)-2,4-pyrimidinediamine [Compound 1340] | < 10 µM | < 10 µM | – | –
21 | N4-(2,2-Dimethyl-3-oxo-4H-benz[1,4]oxazin-6-yl)-5-fluoro-N2-{1-methyl-2-[(methylsulfonyl)methyl]benzimidazol-5-yl}-2,4-pyrimidinediamine [Compound 967] | – | – | – | IC50 ([1]; CHMC low cell density, 3pt, read-out: LD Tryptase, CHMC, IgE, 3pt): < 10 µM; IC50 [1, 5]: < 10 µM
22 | N4-(2,2-Dimethyl-3-oxo-4H-benz[1,4]oxazin-6-yl)-5-fluoro-[1-(2-hydroxymethyl)-2-trifluoromethylbenzimidazol-5-yl]-2,4-pyrimidinediamine [Compound 922] | – | – | – | IC50 [1, 5]: < 10 µM
23 | N4-(2,2-Dimethyl-3-oxo-4H-benz[1,4]oxazin-6-yl)-N2-(1-methyl-2-trifluoromethylbenzimidazol-5-yl)-2,4-pyrimidinediamine [Compound 913] | – | – | – | IC50 [1, 5]: < 10 µM
24 | N4-[benzoxathiazin-3(4H)-one-6-yl]2-chloro-5-fluoro-4-pyrimidinea mine [Compound 319] | < 10 µM | – | – | –
